# Reference: patent publication US9969970B2, “DNA-cell conjugates” (The Regents of the University of California, priority 2009, dated 2018)
# {Phos} = phosphine group for Staudinger ligation to cell-surface azides
# Assays:
# [1] = tested on: Jurkat cells; assay: Single cell acidification on the bifunctional microelectrode array, rotenone stimulation; assay type: cell-based
# Experimental: Metabolic monitoring was accomplished as follows: Cells were suspended at a concentration of 10^6/ml, and the suspension was flowed into the microfluidic device. Cell suspensions were flowed into the channel using 1 mL syringes with Teflon tubing. Where Jurkat and primary T cells were monitored simultaneously they were labeled with CellTracker Green and Red dyes, respectively, as previously described and mixed in an equal ratio. Following a 5 min incubation to allow DNA-based cell capture, the unbound cells were rinsed away (5 ul/min for 3 min) with the low-buffered media. After rinsing, the pH response was monitored electrochemically for 10 min. After this recording, cells were released from the electrodes by heating the device to 55° C. and applying a strong rinse (200 uL/min) with the low-buffered media. Once rinsed and allowed to return to 37° C., the device could be reloaded with cells. This allowed for multiple measurements to be taken with a single cell preparation.
# Voltage measurements were recorded between the iridium oxide electrode and a distant FLEXREF Ag/AgCl reference electrode from World Precision Instruments. An identical iridium oxide electrode outside the cell area was used to compensate for any sensor drift. The sensor electrodes were connected to a National Instruments PCI-6031E data acquisition card with 16 bit analog to digital conversion. The digitized signals were monitored using a custom Labview VI, sampling in multiplex at 3 hz. Voltage signals were processed with a 1% Loess filter using Peak Fit software to reduce noise.
# (§1) Incubation with rotenone would be expected to interfere with the mitochondrial electron transport chain, causing cells to shift to lactic acid fermentation to complete the glycolytic cycle. The resulting excretion of lactic acid should then increase the rate of acidification in the cellular environment. In the experiment, captured cells were first incubated under normal conditions to establish a baseline rate of acidification (˜8.8 milli-pH/min) under aerobic metabolism.
# [2] = tested on: Jurkat cells; assay: Bulk cell acidification control with rotenone; assay type: cell-based; conditions: 1 μM rotenone, low-buffered media, ~10^6 cells/mL, 37° C.
# Experimental: as §1
# [3] = tested on: Jurkat cells; assay: Quantification of DNA attached to the cell surface; assay type: cell-based; conditions: Ac4ManNAz-fed cells, Staudinger ligation
# [4] = 20 bp DNA duplex; ConA-mannose; antibody-antigen; cited from earlier work
# [5] = tested on: Jurkat cells; assay: Bulk cell growth and morphology in the presence of adhesion molecules; assay type: cell-based; conditions: adhesion molecule in suspension; DNA-coated cells with complementary sequence
# Experimental: (§2) FIG. 17. Comparison of biomolecule-based adhesion methods. a) Bulk cell growth rates were first determined in the presence of the adhesion molecules. A suspension of Jurkat cells was combined with ConA or anti-CD3 IgG, and a solution of DNA-coated cells was combined with the complementary DNA strands. At various time points the total number of cells was counted. The control sample was grown in the absence of any adhesion molecules. b) To evaluate cell capture efficiency, solutions of 20 μM FITC-labeled ssDNA, 20 μM FITC-labeled ConA, and 6 μM FITC-labeled anti-CD3 IgG were applied to aldehyde-coated glass slides, and the biomolecules were attached by reductive amination. Solutions containing 1×10^7 Jurkat cell mL^−1 were then introduced onto the resulting slides. The samples were incubated for 10 min at room temperature and then washed with two portions of phosphate-buffered saline (PBS) before evaluation. c) To evaluate cell viability, cells were immobilized on DNA, ConA, and anti-CD3 IgG coated aldehyde slides. […] The cells were evaluated within 1 h by fluorescence microscopy. * ConA and antibody immobilized cells that were partially stained by annexin were counted as cells undergoing apoptosis. […]
# The effects of the adhesion molecules on the viability of the cells were assessed using two different methods. […]
# [6] = tested on: Jurkat cells; assay: Cell capture, morphology and annexin V/PI viability of cells immobilized on biomolecule-coated slides; assay type: cell-based
# Experimental: as §2, with “slides.” for “slides. The samples were incubated for 10 min at room temperature and then washed with two portions of phosphate-buffered saline (PBS) before evaluation. c) To evaluate cell viability, cells were immobilized on DNA, ConA, and anti-CD3 IgG coated aldehyde slides.”
# The extent of apoptosis of surface bound cells was determined by annexin V/propidium iodide staining (BD Biosciences). […] The cells were imaged by fluorescence microscopy and the number of non-viable cells counted after one hour. […]
# [7] = tested on: Jurkat cells; assay: AFM measurement of de-adhesion force, cell-cantilever; conditions: cantilever attachment method
# Experimental: FIG. 18. AFM measurement of de-adhesion force. A) Six sample traces for a single cell are shown in shades of gray, with the average trace shown in black. At zero distance, the cell is in full contact with the cantilever, which is applying a positive force. As distance increases, the cantilever is pulled away from the glass slide surface, causgin the cell-cantilever linkage to rupture and result in the zero-force, no-contact region. The force of d-adhesion was calculated as the difference between the curve minimum and the horizontal no=contact region. B) Adhesion forces were measured under different retraction rates (15.7 and 8.2 μm/s) and contact forces (400 and 200 pN) for the DNA, ConA, and antibody systems. Data were obtained by measuring size de-adhesion events on more than four different cells. Error bards represent one standard deviation.
# Our assay to determine the strength of cantilever attachment was designed such that cell-cantilever adhesions were fewer in number, and therefore weaker overall, than DNA-based adhesions between a cell and the complementarily functionalized glass slide. […] The force of de-adhesion was measured for each attachment method using two different retraction rates and two different contact forces (FIG. 18a). The measured force of de-adhesion increased with contact force and retraction rate across all attachment methods, as predicted by the Bell model. […]
compound,measurement,setting,value
C=C(C)[C@H]1Cc2c(ccc3c2O[C@@H]2COc4cc(OC)c(OC)cc4[C@@H]2C3=O)O1 [rotenone],increase in the acidification rate,[1]; 10 μM rotenone versus baseline,three-fold
same,time to increase in acidification rate,[1]; after addition of 10 μM rotenone,≤ 1 min
same,acidification rate,"[1]; single Jurkat cells after 10 μM rotenone added to channel, baseline ~8.8 milli-pH/min",~27.7 milli-pH/min
same,acidification over 60 min compared to identical untreated cells,[2],more than twice
"Phosphine-modified ssDNA: phosphine-modified ssDNA (5′-phos-GTAACGATCCAGCTGTCACT-3′) ligated to cell-surface azides by Staudinger ligation (DNA GTAACGATCCAGCTGTCACT; DNA, 5' {Phos}, backbone not given here)",ssDNA molecules per cell,[3],"≈ 270,000"
concanavalin A [ConA],force of one individual linkage,[4],47 pN
same,cell growth over a three-day period,[5],aggregated and were no longer alive after 12 h
same,"apoptotic and necrotic cells, annexin V and PI staining",[6]; 24 and 48 h after immobilization,significantly higher numbers of apoptotic cells
same,morphology of immobilized cells,[6]; after 48 h on coated slides,significant changes
same,zero-force attachment events in de-adhesion measurements,[7],12%
